Source: ChEMBL document CHEMBL1287713, “Discovery and selectivity-profiling of 4-benzylamino 1-aza-9-oxafluorene derivatives as lead structures for IGF-1R inhibitors” (Bioorg Med Chem Lett, 2010)
Blank lines part the entries; values can stand above or below the compound they belong to.

How the values were obtained:
[1] = molecular target: Insulin-like growth factor 1 receptor (Homo sapiens, UniProt P08069); assay: Inhibition of IGF1R
[2] = molecular target: Epidermal growth factor receptor (Homo sapiens, UniProt P00533); assay: Inhibition of EGFR
[3] = molecular target: Vascular endothelial growth factor receptor 3 (Homo sapiens, UniProt P35916); assay: Inhibition of VEGFR3
Vascular endothelial growth factor receptor 3, sequence (P35916 whole entry): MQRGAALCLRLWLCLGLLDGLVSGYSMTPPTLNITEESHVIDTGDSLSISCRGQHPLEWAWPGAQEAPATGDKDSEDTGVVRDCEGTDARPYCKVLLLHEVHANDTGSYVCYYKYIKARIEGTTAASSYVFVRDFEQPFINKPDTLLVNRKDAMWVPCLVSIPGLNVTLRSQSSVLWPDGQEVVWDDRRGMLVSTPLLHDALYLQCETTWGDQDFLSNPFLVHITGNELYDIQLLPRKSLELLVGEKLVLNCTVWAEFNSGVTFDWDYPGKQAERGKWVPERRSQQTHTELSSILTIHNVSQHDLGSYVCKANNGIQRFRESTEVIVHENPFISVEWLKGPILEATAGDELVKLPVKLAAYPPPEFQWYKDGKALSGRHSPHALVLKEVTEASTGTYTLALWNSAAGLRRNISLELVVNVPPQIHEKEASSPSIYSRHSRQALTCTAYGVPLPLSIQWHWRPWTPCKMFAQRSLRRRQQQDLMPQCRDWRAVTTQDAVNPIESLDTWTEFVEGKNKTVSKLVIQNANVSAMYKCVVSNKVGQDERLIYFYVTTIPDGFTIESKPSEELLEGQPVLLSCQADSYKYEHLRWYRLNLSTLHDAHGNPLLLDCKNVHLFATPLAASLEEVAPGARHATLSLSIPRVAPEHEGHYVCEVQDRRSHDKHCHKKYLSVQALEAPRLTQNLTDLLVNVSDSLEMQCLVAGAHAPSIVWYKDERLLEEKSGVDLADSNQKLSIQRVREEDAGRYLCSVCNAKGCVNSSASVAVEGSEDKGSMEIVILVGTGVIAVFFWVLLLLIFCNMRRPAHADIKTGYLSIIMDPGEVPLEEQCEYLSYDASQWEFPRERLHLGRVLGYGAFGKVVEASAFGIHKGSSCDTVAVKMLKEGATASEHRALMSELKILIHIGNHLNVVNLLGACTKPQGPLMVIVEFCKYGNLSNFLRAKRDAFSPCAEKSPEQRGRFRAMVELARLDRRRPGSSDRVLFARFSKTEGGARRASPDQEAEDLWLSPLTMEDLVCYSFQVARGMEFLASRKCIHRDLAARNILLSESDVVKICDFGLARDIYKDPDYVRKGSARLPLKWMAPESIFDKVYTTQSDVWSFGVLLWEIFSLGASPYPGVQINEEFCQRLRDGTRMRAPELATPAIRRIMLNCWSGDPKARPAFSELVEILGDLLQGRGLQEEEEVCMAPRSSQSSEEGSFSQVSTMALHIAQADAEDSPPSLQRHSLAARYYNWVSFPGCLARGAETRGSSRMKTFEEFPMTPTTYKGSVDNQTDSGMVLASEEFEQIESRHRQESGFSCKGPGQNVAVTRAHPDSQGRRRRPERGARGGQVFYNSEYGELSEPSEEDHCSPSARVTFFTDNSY

[4] = molecular target: Vascular endothelial growth factor receptor 2 (Homo sapiens, UniProt P35968); assay: Inhibition of VEGFR2
Vascular endothelial growth factor receptor 2, sequence (P35968 whole entry): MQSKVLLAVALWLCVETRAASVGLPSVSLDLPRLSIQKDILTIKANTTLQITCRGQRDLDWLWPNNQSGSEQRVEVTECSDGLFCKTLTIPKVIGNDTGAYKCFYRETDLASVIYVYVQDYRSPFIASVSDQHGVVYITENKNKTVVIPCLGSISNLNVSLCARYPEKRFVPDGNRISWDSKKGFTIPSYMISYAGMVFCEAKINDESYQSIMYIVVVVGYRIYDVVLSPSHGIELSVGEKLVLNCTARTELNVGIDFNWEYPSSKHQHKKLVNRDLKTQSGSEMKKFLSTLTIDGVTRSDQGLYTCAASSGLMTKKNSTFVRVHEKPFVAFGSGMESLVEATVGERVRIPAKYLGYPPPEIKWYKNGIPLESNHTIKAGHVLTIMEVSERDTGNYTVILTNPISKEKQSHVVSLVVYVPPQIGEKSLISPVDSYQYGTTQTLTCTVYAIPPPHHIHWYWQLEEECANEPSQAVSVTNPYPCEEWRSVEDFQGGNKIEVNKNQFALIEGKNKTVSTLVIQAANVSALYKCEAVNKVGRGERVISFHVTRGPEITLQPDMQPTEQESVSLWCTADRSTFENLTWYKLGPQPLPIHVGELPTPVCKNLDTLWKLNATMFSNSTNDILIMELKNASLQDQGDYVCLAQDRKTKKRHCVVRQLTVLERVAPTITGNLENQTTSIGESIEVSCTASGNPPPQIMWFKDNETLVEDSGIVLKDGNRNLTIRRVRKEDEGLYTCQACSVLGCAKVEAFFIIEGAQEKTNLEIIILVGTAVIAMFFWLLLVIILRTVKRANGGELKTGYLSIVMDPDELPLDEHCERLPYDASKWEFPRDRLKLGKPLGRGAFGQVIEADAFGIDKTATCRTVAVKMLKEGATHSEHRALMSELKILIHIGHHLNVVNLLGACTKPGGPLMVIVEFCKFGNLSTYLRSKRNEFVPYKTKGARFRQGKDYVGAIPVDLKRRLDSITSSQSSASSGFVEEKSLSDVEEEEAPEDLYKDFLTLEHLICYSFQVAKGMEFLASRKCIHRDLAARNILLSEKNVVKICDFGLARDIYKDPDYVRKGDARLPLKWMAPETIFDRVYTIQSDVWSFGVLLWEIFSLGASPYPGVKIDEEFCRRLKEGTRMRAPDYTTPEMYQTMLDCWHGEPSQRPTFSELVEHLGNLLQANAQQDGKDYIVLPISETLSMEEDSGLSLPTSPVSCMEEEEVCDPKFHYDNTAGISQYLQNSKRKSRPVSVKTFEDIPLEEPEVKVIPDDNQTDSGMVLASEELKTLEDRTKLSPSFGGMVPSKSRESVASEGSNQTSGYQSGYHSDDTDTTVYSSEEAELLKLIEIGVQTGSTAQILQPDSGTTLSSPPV

[5] = molecular target: Tyrosine-protein kinase ABL1 (Homo sapiens, UniProt P00519); assay: Inhibition of human ABL1
[6] = molecular target: Tyrosine-protein kinase ABL2 (Homo sapiens, UniProt P42684); assay: Inhibition of human ABL2
Focal adhesion kinase 1 = Focal adhesion kinase 1 (Homo sapiens, UniProt Q05397); assay: Inhibition of human FAK
Insulin receptor = Insulin receptor (Homo sapiens, UniProt P06213); assay: Inhibition of human InsR
[7] = molecular target: Insulin receptor-related protein (Homo sapiens, UniProt P14616); assay: Inhibition of human InsRR
Angiopoietin-1 receptor = Angiopoietin-1 receptor (Homo sapiens, UniProt Q02763); assay: Inhibition of human TIE2
[8] = molecular target: Interleukin-1 receptor-associated kinase 1 (Homo sapiens, UniProt P51617); assay: Inhibition of human IRAK1
Interleukin-1 receptor-associated kinase 1, sequence (P51617 whole entry, the tested form may be a part): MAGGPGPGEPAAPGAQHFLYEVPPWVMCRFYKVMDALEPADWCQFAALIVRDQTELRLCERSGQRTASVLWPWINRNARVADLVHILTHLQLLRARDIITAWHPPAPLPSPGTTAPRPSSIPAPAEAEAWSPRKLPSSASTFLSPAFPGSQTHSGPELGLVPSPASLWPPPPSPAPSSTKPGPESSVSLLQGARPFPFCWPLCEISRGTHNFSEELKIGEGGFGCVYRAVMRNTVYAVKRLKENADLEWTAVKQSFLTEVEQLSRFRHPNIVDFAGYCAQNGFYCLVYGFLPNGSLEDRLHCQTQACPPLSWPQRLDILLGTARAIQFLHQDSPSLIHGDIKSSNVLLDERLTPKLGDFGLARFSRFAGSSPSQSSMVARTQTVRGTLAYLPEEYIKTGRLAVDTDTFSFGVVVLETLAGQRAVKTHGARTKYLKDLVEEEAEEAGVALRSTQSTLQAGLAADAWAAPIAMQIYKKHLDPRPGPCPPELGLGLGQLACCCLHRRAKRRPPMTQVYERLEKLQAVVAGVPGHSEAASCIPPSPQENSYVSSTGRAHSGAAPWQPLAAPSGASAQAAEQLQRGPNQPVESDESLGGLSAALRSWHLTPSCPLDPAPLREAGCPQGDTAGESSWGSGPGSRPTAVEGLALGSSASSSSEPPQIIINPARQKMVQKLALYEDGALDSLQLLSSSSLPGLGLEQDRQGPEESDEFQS

LIM domain kinase 1 = LIM domain kinase 1 (Homo sapiens, UniProt P53667); assay: Inhibition of human LIMK1
[9] = molecular target: Cyclin-dependent kinase 4/cyclin D1 (Homo sapiens, UniProt P11802); assay: Inhibition of human CDK4/Cyclin D1; type: protein-complex assay
CDK6/cyclin D1 = CDK6/cyclin D1 (Homo sapiens, UniProt Q00534); assay: Inhibition of human CDK6/Cyclin D1; type: protein-complex assay
[10] = molecular target: Cyclin-dependent kinase 5/CDK5 activator 1 (Homo sapiens, UniProt Q00535); assay: Inhibition of human CDK5/p25; type: protein-complex assay
[11] = molecular target: Dual specificity protein kinase CLK1 (Homo sapiens, UniProt P49759); assay: Inhibition of human CLK1
[12] = molecular target: Dual specificity tyrosine-phosphorylation-regulated kinase 1A (Homo sapiens, UniProt Q13627); assay: Inhibition of human DYRK1A
[13] = molecular target: Homeodomain-interacting protein kinase 1 (Homo sapiens, UniProt Q86Z02); assay: Inhibition of human HIPK1
Aurora kinase A = Aurora kinase A (Homo sapiens, UniProt O14965); assay: Inhibition of human Aurora A
Aurora kinase C = Aurora kinase C (Homo sapiens, UniProt Q9UQB9); assay: Inhibition of human Aurora C
Aurora kinase C, sequence (Q9UQB9 whole entry): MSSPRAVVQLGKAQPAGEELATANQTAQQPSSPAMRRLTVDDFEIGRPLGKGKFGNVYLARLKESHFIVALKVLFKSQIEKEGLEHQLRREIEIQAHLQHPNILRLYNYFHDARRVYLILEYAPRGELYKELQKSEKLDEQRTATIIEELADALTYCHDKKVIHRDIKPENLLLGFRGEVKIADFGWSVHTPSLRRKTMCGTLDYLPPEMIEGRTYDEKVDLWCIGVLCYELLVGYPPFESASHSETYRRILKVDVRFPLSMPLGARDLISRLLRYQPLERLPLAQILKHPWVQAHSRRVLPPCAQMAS

[14] = molecular target: Protein kinase C gamma type (Homo sapiens, UniProt P05129); assay: Inhibition of human PKC-gamma
[15] = molecular target: Protein kinase C iota type (Homo sapiens, UniProt P41743); assay: Inhibition of human PKC-iota
[16] = molecular target: Mitogen-activated protein kinase 3 (Homo sapiens, UniProt P27361); assay: Inhibition of human ERK1
[17] = molecular target: Mitogen-activated protein kinase 14 (Homo sapiens, UniProt Q16539); assay: Inhibition of human p38-alpha
Misshapen-like kinase 1 = Misshapen-like kinase 1 (Homo sapiens, UniProt Q8N4C8); assay: Inhibition of human INK1
[18] = molecular target: Serine/threonine-protein kinase VRK1 (Homo sapiens, UniProt Q99986); assay: Inhibition of human VRK1
Wee1-like protein kinase = Wee1-like protein kinase (Homo sapiens, UniProt P30291); assay: Inhibition of human WEE1
[19] = molecular target: Serine/threonine-protein kinase Nek3 (Homo sapiens, UniProt P51956); assay: Inhibition of human Nek3
[20] = molecular target: Serine/threonine-protein kinase PLK1 (Homo sapiens, UniProt P53350); assay: Inhibition of human PLK1
[21] = Growth inhibition of human NCI60 cells by SBR assay; type: functional
[22] = Cytotoxicity against human NCI60 cells by SBR assay; type: functional

Insulin-like growth factor 1 receptor, sequence (P08069 31-736 limits assumed): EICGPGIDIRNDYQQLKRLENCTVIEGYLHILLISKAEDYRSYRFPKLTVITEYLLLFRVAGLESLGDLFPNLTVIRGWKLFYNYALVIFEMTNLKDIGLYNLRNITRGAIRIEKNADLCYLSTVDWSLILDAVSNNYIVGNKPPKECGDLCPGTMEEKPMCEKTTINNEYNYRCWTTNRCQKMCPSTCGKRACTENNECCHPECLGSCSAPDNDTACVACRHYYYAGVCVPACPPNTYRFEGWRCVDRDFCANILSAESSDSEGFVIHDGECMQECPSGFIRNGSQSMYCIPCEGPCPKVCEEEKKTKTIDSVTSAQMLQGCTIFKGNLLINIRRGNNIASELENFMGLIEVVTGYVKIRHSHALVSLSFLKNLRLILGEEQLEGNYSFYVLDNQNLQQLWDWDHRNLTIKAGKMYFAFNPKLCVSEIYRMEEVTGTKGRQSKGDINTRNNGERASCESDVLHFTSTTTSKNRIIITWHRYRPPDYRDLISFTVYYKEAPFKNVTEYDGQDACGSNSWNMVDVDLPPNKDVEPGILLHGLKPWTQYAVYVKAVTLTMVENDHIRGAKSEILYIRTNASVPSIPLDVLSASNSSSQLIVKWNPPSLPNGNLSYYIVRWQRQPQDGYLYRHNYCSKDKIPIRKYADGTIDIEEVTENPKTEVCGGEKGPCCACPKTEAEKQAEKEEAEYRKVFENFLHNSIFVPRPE
Insulin-like growth factor 1 receptor, sequence (P08069 741-1367 limits assumed): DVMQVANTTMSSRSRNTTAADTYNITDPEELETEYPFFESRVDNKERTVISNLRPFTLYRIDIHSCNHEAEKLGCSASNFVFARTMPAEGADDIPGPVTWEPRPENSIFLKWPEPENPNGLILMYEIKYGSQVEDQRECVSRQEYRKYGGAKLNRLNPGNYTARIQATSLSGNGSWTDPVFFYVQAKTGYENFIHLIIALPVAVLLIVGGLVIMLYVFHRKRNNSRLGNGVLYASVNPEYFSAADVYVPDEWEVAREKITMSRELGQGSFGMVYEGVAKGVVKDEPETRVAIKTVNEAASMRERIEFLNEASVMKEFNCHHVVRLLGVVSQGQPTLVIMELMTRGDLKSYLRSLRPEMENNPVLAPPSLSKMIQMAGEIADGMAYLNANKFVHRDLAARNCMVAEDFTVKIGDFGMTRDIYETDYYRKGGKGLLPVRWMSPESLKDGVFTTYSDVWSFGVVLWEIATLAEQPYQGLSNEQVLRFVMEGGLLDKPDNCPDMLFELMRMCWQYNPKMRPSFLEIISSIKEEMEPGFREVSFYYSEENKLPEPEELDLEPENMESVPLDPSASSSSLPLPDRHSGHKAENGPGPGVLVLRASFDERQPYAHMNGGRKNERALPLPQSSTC

SMILES: c1ccc2c(CNc3ccnc4oc5ccccc5c34)cccc2c1
- Ki [1]: 0.57 µM
- Ki [2]: 0.68 µM
- Ki [3]: 1.09 µM
- Ki [4]: 0.3 µM

SMILES: Clc1ccc(CNc2ccnc3oc4ccccc4c23)cc1
- Ki [1]: 0.11 µM
- Ki [2]: 0.5 µM
- Ki [3]: 0.68 µM
- Ki [4]: 0.18 µM
- GI50 [21]: 33.9 µM
- LC50 [22]: > 100 µM

SMILES: N[C@@H](Cc1ccc(N(CCCl)CCCl)cc1)C(=O)O
- GI50 [21]: 33.1 µM

SMILES: COc1cc([C@@H]2c3cc4c(cc3[C@@H](O[C@@H]3O[C@@H]5CO[C@@H](C)O[C@H]5[C@H](O)[C@H]3O)[C@H]3COC(=O)[C@H]23)OCO4)cc(OC)c1O [ETOPOSIDE]
- GI50 [21]: 38.9 µM

SMILES: CCc1c2c(nc3ccc(OC(=O)N4CCC(N5CCCCC5)CC4)cc13)-c1cc3c(c(=O)n1C2)COC(=O)[C@]3(O)CC [IRINOTECAN]
- GI50 [21]: 14.1 µM

More lines, now with the values ahead:

- Ki [1]: 0.37 µM
- Ki [2]: 0.59 µM
- Ki [3]: 1.09 µM
- Ki [4]: 0.47 µM
SMILES: c1ccc(CNc2ccnc3oc4ccccc4c23)cc1

- Ki [1]: 2.11 µM
- Ki [2]: 3.45 µM
- Ki [3]: 9.39 µM
- Ki [4]: 2.01 µM
SMILES: c1ccc(CCNc2ccnc3oc4ccccc4c23)cc1

- Ki [1]: 0.15 µM
- Ki [3]: > 1000 µM
- Ki [4]: > 1000 µM
- IC50 [5]: 392 µM
- Ki [6]: > 1000 µM
- IC50 (Focal adhesion kinase 1): 194 µM
- IC50 (Insulin receptor): 622 µM
- IC50 [7]: 182 µM
- Ki (Angiopoietin-1 receptor): > 1000 µM
- Ki [8]: > 1000 µM
- IC50 (LIM domain kinase 1): 759 µM
- IC50 [9]: 376 µM
- IC50 (CDK6/cyclin D1): 129 µM
- Ki [10]: > 1000 µM
- Ki [11]: > 1000 µM
- Ki [12]: > 1000 µM
- Ki [13]: > 1000 µM
- Ki (Aurora kinase A): > 1000 µM
- Ki (Aurora kinase C): > 1000 µM
- Ki [14]: > 1000 µM
- Ki [15]: > 1000 µM
- Ki [16]: > 1000 µM
- Ki [17]: > 1000 µM
- Ki (Misshapen-like kinase 1): > 1000 µM
- IC50 [18]: 129 µM
- Ki (Wee1-like protein kinase): > 1000 µM
- Ki [19]: > 1000 µM
- IC50 [20]: 271 µM
SMILES: COc1ccc(CNc2ccnc3oc4ccccc4c23)cc1

- Ki [1]: 0.58 µM
- Ki [2]: > 1000 µM
- Ki [3]: > 1000 µM
- Ki [4]: > 1000 µM
SMILES: Clc1cccc(CNc2ccnc3oc4ccccc4c23)c1

- Ki [1]: > 1000 µM
- Ki [2]: > 1000 µM
- Ki [3]: > 1000 µM
- Ki [4]: > 1000 µM
SMILES: c1cncc(CNc2ccnc3oc4ccccc4c23)c1
